{"source": "patent US8575376B2", "about": "“Steroide anionic compounds, method of their production, usage and pharmaceutical preparation involving them” (Ustav Organicke Chemie A Biochemie Akademie Ved Ceske …, priority 2009, dated 2013)", "key": {"Neuropathic pain model": {"assay": "Neuropathic pain model", "assay_type": "in vivo", "conditions": "no data shown"}, "rats [1]": {"tested_on": "rats", "assay": "Spontaneous locomotor activity in the open-field test", "assay_type": "in vivo, rat", "conditions": "1 and 10 mg/kg s.c., 30 min before, 30 min session", "procedure": "Animals were tracked with Ethovision Pro system (Noldus, Netherlands) and total path traveled during this session was evaluated. The compound from Example 9 was applied subcutaneously (dissolved in cyclodextrin) 30 min prior to behavioral observations at doses 1 mg/kg a 10 mg/kg; control animals were injected with saline."}, "Long-Evans male rats": {"tested_on": "Long-Evans male rats", "assay": "Acute toxicity in rat", "assay_type": "in vivo", "procedure": "Toxicity of compound from example 9 was tested on 2-month-old Long-Evans male rats. Animals were randomly assigned to 4 groups per 7 animals each. The first group was injected i.p. with saline, the second group received i.p. cyclodextrine, the third group obtained received the compound from example 9 at a dose 1 mg/kg (dissolved in β-cyclodextrine) and the last group compound from example 9 at a dose 100 mg/kg (dissolved in β-cyclodextrine). Animals were monitored for the period of 5 days. At the end of the experiment macroscopic dissection was carried out and organs were weighted (brain, heart, liver, spleen and kidneys). Animals' weight, food and water consumption was monitored daily. At the same time the behavior and locomotor activity was observed and animals were inspected for detection of effusions, constipation, etc."}, "rats [2]": {"tested_on": "rats", "assay": "Histochemical analysis (FluoroJadeB) after bilateral NMDA-induced hippocampal lesion", "assay_type": "in vivo, rat", "conditions": "1 mg/kg i.p.", "procedure": "Animals were divided into four groups consisting of two series. First group of animals received an application of NMDA (intrahipocampally, i.h.) and compound from Example 9 (1 mg/kg, i.p.). Second group received NMDA i.h. and cyclodextrine i.p., third group obtained saline i.h. and cyclodextrin i.p. Forth group was applied with sterile saline i.h. and compound from Example 9 at a dose 1 mg/kg, i.p. Six animals from each group was sacrificed and perfused at intervals of 1-4 days after experimental manipulation.\nAnimals were deeply anesthetized by isoflurane (3.5%, driven by air) and fixed in the stereotaxic apparatus. Small drills were made in the skull and subsequently microinjection of NMDA (1 μl, […] NMDA in saline; pH adjusted to 7.2 by calcium dihydrogenphosphate) into both hippocampi was pursued. Coordinates of application (AP=4, L=2.5, DV=4) were localized with stereotaxic atlas (Paxinos and Watson, 2005) and verified in histological controls. Rats were again placed in soft recovery boxes after surgery and carefully monitored after surgery.\nApplication of compound from Example 9 was done according to experimental scheme either 30 min prior to and after NMDA application (in first series of experiments) or 30 min after lesion in the second series. Animals were perfused on days 1-4 after lesion, their brains were fixed with paraformaldehyde and sacharose solution. The brains were subsequently frozen to −70° C., and thin brain slices were prepared on cryomicrotome, stained and analyzed under light microscope."}, "rats [3]": {"tested_on": "rats", "assay": "Prepulse inhibition in MK-801 animal model of schizophrenia", "assay_type": "in vivo, rat", "procedure": "The effect of i.p. administration of the compound from example 9 at doses of 0.1 and 1 mg/kg on sensorimotor gating in prepulse inhibition (PPI) test was evaluated. All testing occurred within the startle chamber (SR-LAB, San Diego Instruments, USA), which consisted of a clear Plexiglas cylinder (8.2 cm diameter, 10×20 cm) that rested on a piezoelectric accelerometer inside a ventilated and illuminated chamber. The piezoelectric accelerometer detected and transduced motion within the cylinder. A high frequency loudspeaker inside the chamber (24 cm above the animal) produced both a background noise of 62 dB and the acoustic stimuli. All rats were initially tested in a short session (5 min acclimatization period plus 5 single stimuli; 120 dB strong) 2 days before the experiment.\nThe background noise (62 dB) was presented alone for 5 min (acclimatization period) and then continued throughout the session. […] The PPI was measured as a difference between the average responses to the single pulse and prepulse-pulse trials, and was expressed as a percent of the PPI [100−(mean response for prepulse-pulse trials/startle response for single pulse trials)×100]. […]"}, "[4]": {"biological_target": "T1, recombinant NR1/NR2B receptors (Rattus norvegicus, UniProt P35439+Q00960)", "T1 construct": "expressed in transfected cells; host or cells: HEK293 cells (ATCC CRL1573)", "T1 sequence (Q00960 27-1482, other chains not shown)": "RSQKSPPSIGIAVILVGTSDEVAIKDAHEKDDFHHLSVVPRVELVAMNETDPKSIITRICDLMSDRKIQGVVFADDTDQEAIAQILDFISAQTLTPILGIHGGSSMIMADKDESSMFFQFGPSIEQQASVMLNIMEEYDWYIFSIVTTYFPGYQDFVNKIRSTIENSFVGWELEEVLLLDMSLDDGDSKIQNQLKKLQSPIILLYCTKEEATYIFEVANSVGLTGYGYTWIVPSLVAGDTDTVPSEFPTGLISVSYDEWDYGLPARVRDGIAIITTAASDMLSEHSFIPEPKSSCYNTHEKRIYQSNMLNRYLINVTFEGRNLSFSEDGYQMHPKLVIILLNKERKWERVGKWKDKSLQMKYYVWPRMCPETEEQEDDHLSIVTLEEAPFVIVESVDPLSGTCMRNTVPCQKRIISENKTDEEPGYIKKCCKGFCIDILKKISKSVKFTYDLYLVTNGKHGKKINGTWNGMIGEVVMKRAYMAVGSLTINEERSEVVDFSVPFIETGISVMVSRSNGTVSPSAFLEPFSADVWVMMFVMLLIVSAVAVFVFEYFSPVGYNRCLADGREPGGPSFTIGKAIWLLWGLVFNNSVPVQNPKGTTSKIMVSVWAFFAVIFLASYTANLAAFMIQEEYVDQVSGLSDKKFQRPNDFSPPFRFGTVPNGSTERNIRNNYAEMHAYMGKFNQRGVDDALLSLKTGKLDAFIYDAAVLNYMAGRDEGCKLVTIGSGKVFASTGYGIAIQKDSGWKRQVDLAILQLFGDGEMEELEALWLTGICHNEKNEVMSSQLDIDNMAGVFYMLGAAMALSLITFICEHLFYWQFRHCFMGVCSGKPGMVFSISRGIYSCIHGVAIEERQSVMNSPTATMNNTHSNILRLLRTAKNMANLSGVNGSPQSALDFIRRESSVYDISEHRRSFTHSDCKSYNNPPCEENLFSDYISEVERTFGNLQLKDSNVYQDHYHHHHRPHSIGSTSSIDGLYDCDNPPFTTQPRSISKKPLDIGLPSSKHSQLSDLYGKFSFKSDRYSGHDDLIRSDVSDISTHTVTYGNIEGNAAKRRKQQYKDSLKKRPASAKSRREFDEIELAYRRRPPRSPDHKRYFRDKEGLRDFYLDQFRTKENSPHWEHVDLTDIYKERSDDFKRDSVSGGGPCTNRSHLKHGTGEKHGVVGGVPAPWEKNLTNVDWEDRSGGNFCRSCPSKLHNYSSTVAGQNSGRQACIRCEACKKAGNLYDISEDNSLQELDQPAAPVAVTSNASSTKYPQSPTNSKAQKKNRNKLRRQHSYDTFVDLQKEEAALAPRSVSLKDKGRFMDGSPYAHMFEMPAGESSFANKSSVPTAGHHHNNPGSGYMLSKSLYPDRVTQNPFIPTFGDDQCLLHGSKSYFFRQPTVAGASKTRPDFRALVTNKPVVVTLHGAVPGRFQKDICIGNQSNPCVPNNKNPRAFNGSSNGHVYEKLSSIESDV", "assay": "Patch-clamp, inhibition of glutamate responses of recombinant NMDA receptors in transfected HEK293 cells", "assay_type": "cell-based"}}, "note": "Entries after “also recorded” stand apart in the source; their conditions may differ.", "data": [{"smiles": "CC(=O)[C@H]1CC[C@H]2[C@@H]3CC[C@@H]4C[C@H](OC(=O)[C@@H](N)CCC(=O)O)CC[C@]4(C)[C@H]3CC[C@]12C", "note": "[Example 9, 20-Oxo-5β-pregnan-3α-yl L-glutamyl 1-ester]", "values": [{"measurement": "action on the neuropathic pain model", "setting": "Neuropathic pain model", "result": "Beneficial action"}, {"measurement": "total distance traveled in the open-field session (spontaneous locomotor activity)", "setting": "rats [1]", "result": "did not significantly alter the spontaneous locomotor activity"}, {"measurement": "short-term body weight gain", "setting": "Long-Evans male rats; 1 mg/kg i.p. (lower dose), 5 days", "result": "failed to affect short-term body weight gain"}, {"measurement": "time to spontaneous awakening", "setting": "Long-Evans male rats; 100 mg/kg i.p.", "result": 4, "unit": "h"}, {"measurement": "short-term body weight gain", "setting": "Long-Evans male rats; 100 mg/kg i.p. (higher dose), 5 days", "result": "tended to decrease it slightly"}, {"measurement": "locomotor activity on the day of application", "setting": "Long-Evans male rats; 100 mg/kg i.p., 15 minutes after injection", "result": "decreased locomotor activity"}, {"measurement": "anesthetic effect", "setting": "Long-Evans male rats; 100 mg/kg i.p., 45 minutes after injection", "result": "gradually changed into anesthesia of animals"}, {"measurement": "weight of body organs (brain, heart, liver, spleen, kidneys)", "setting": "Long-Evans male rats; 1 and 100 mg/kg i.p., autopsy on day 5", "result": "no differences between controls and animals treated with the compound from example 9"}, {"measurement": "signs of acute toxicity", "setting": "Long-Evans male rats; rat, i.p., doses up to 100 mg/kg, 5 days", "result": "does not exhibit any signs of acute toxicity; also recorded: absense of any signs of acute toxicity"}, {"measurement": "NMDA-induced damage in caudatoputamen and thalamic nuclei (histology)", "setting": "rats [2]", "result": "Alleviation, but not elimination of damage"}, {"measurement": "NMDA-induced damage in neocortex (histology)", "setting": "rats [2]", "result": "pronounced cessation of damage in the whole neocortex"}, {"measurement": "NMDA-induced damage to the hippocampus (histology)", "setting": "rats [2]; dentate gyrus, Cornu ammonis fields, subiculum", "result": "significant decrease of NMDA-induced damage to the hippocampus"}, {"measurement": "prepulse inhibition deficit induced by MK-801", "setting": "rats [3]; Example 9 0.1 or 1 mg/kg i.p. co-administered with MK-801 0.1 mg/kg", "result": "blocked the exacerbating effect of MK-801"}, {"measurement": "prepulse inhibition", "setting": "rats [3]; Example 9 alone, 0.1 and 1 mg/kg i.p.", "result": "had no influence on prepulse inhibition"}, {"measurement": "IC50", "setting": "[4]; calculated from relative inhibition with Hill's coefficient 1.2", "result": 73, "unit": "µM"}, {"measurement": "Relative inhibition effect (%)", "setting": "[4]; responses to 1 mM glutamate, -60 mV, HEK293 NR1-1a/NR2B, steroid 50, 100 or 200 μM", "result": "77.1 ± 5.2", "unit": "%"}]}]}
